Experimental data reported in paper PMC9792776 (Frontiers in Pharmacology, 2022).

Tests used:
CYP2C19 = CYP2C19 (Homo sapiens, UniProt P33261); test: CYP2C19 inhibition in human liver microsomes
Protocol: Ki=IC50/1+S/Km (1) Where IC50 signifies the half-maximum inhibitory concentration; S, the concentration of P450 marker substrate; and K m , the Michaelis constant within the Michaelis-Menten equation, which is in turn used to characterize substrate-enzyme binding kinetics.
The Michaelis constant (K m ) of CYP2C9 incubated with diclofenac was obtained from reported data ([Lee et al., 2014]). Methods used to calculate the Ki of CYP2C19 and CYP2C9 were similar.

OAT3 = molecular target: T1, OAT3 (Homo sapiens, UniProt Q8TCC7); test: Transporter substrate/inhibitor assessment, OAT3; format: in vitro ADME
T1 sequence (Q8TCC7 1-542): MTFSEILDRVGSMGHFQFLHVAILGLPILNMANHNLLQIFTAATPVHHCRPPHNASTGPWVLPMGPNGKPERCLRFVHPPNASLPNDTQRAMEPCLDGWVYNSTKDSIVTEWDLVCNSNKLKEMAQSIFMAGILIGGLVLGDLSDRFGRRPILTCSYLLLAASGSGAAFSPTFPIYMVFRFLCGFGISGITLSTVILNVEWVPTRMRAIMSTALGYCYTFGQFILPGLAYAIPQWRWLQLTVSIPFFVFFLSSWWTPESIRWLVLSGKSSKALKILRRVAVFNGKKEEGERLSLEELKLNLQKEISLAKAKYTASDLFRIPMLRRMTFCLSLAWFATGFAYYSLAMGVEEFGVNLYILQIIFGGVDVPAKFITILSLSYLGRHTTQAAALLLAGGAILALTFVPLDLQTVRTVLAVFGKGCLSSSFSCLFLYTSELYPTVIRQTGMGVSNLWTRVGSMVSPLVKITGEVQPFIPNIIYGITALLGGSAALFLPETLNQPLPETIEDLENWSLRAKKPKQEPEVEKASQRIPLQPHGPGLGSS

MATE1 = MATE1 (Homo sapiens, UniProt Q96FL8); test: Transporter substrate/inhibitor assessment, MATE1; format: in vitro ADME
Sequence of MATE1 (Q96FL8 whole entry, species assumed): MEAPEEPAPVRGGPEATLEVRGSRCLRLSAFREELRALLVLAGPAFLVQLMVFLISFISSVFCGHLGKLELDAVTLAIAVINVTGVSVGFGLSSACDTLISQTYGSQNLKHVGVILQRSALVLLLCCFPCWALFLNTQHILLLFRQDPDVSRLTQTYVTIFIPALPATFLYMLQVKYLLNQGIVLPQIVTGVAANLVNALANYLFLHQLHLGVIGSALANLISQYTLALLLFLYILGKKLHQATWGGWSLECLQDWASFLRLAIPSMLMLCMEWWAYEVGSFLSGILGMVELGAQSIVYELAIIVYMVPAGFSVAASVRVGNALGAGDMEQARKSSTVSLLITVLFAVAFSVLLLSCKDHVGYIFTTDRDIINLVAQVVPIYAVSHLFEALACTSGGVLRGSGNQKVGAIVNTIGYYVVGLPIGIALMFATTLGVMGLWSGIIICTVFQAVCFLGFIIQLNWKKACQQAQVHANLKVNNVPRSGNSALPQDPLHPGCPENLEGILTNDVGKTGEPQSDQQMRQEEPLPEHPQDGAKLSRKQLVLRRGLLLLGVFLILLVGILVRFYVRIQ

P-gp = P-gp (Homo sapiens, UniProt P08183); test: P-gp substrate and in vivo inhibition assessment
Sequence of P-gp (P08183 whole entry): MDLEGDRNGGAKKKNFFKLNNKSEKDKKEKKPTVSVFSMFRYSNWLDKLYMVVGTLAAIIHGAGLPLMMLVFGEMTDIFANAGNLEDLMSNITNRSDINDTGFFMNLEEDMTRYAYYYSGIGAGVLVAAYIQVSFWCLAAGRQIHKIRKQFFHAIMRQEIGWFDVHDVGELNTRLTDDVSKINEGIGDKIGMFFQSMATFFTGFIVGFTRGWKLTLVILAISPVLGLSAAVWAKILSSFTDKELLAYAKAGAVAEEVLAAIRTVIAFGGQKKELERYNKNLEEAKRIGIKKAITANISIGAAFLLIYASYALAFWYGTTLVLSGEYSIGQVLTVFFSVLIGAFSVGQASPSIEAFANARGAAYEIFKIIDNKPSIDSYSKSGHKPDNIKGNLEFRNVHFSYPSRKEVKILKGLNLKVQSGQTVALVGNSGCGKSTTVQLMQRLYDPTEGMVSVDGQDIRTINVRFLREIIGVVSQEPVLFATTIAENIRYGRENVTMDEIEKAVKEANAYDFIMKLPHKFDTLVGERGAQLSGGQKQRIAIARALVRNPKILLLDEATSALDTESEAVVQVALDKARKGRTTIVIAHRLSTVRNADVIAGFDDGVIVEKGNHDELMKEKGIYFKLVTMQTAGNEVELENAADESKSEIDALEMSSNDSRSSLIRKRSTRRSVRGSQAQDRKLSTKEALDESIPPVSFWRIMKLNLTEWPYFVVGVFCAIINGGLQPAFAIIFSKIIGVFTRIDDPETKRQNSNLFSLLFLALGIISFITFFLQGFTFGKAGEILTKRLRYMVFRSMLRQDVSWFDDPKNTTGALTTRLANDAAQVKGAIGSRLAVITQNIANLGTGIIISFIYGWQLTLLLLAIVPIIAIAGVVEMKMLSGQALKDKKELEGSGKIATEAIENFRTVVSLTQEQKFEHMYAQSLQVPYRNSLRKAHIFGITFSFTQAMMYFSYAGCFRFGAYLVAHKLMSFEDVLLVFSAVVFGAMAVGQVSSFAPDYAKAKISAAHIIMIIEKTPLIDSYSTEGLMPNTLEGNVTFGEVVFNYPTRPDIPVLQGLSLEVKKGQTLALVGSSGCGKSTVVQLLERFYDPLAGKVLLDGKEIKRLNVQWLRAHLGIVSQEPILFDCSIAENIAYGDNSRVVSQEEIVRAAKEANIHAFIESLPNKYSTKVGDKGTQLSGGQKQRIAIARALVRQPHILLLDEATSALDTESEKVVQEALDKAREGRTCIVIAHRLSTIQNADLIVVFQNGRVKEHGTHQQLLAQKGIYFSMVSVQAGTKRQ
From the text: (§1) The effects of transporters expressed on the gut and liver have not been investigated.

[1] = molecular target: T2, BCRP (breast cancer resistance protein) (Homo sapiens, UniProt Q9UNQ0); test: BCRP substrate and in vivo inhibition assessment
T2 sequence (Q9UNQ0 1-655): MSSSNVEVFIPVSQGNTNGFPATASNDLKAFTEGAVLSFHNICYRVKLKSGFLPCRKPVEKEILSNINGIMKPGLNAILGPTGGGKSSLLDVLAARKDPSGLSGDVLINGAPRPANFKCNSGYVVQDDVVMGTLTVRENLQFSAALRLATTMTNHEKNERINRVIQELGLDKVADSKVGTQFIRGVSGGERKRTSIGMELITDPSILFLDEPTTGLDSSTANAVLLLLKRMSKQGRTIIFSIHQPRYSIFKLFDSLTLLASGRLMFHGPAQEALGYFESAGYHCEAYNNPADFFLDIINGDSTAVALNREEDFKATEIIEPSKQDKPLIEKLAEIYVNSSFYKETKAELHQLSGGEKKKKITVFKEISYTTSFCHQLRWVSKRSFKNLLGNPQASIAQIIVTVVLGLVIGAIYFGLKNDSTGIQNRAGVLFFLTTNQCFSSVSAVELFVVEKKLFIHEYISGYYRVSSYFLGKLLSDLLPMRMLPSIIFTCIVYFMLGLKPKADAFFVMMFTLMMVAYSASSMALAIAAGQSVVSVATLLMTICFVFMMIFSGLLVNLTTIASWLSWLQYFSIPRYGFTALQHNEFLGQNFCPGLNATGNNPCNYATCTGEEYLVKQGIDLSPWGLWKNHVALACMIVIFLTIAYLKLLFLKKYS
From the text: as §1

in vitro = conditions: human
CYP2C9 = test: in vitro; conditions: human
CYP3A4 = CYP3A4 (Homo sapiens, UniProt P08684); test: Intrinsic clearance in human recombinant CYP3A4
Sequence of CYP3A4 (P08684 whole entry): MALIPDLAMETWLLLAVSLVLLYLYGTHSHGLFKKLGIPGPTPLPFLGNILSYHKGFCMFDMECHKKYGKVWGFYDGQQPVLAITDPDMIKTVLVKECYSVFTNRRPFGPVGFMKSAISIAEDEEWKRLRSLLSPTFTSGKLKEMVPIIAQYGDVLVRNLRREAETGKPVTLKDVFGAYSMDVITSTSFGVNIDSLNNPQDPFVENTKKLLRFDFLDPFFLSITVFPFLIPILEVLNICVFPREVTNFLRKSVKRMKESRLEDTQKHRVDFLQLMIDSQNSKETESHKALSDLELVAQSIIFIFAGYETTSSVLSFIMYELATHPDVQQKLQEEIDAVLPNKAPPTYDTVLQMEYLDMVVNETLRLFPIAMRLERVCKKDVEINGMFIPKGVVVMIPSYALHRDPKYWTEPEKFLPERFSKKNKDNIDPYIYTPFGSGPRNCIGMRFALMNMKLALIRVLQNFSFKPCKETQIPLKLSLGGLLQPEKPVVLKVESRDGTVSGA

Sequence of CYP2C19 (P33261 whole entry): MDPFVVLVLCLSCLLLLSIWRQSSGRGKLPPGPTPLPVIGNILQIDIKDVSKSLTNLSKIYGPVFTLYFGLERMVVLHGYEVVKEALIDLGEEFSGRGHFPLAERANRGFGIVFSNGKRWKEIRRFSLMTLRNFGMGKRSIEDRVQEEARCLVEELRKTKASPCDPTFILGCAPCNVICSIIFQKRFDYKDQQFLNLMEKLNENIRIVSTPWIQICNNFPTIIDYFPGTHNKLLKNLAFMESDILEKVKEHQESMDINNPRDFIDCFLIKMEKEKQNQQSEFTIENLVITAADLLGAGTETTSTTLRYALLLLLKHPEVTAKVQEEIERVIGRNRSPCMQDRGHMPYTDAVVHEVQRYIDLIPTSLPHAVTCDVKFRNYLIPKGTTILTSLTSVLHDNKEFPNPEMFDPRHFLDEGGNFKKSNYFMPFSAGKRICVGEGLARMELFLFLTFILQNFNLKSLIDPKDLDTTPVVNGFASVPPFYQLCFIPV

## Cc1ccc(C(=O)Nc2ccc(CN3CCN(C)CC3)c(C(F)(F)F)c2)cc1C#Cc1cnc2[nH]ncc2c1 [olverembatinib, Olverembatinib]
CYP2C19
  Ki: 1920 nM
CYP2C19; microsomes
  CYP2C19 inhibition, strength: weak
OAT3
  substrate or inhibitor of OAT3: neither a substrate nor inhibitor
MATE1
  substrate or inhibitor of MATE1: neither a substrate nor inhibitor
P-gp
  in vivo inhibition on P-gp: no obvious in vivo inhibition
  substrate of P-gp: is a substrate
[1]
  in vivo inhibition on BCRP: no obvious in vivo inhibition
  substrate of BCRP: is a substrate
In vitro
  microsomal CLint: 5.26 µL/min/mg
CYP2C9; EC50
  EC50: 584 nM
CYP2C9; IndC50 CYP2C9 (Mean EC50)
  EC50: 454 nM
CYP3A4
  CLint CYP3A4: 0.200 µL/min/pmol CYP
